ChEMBL document CHEMBL1201862, “PubChem BioAssay data set” (2004)
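Dose response: 5 concentrations. Exposure: 48 h. Format: 96-well plates. Endpoint: linear interpolation; highest concentration if not reached. Abbreviation: GI50, concentration required for 50% inhibition of growth.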 The source made the active and inactive calls. Cut-off read from the data, not from the text of the source: active = GI50 up to about 1.1 µM and inactive = higher.

Experiments:
Assay in all cases: NCI anticancer screen, dose series, 48 h
[1] = test system: SR
[2] = test system: LOX IMVI
[3] = test system: NCI-H460
[4] = test system: SNB-75
[5] = test system: SF-268
[6] = test system: RXF 393
[7] = test system: KM-20L2
[8] = test system: SK-MEL-5
[9] = test system: NCI-H226
[10] = test system: COLO 205
[11] = test system: A498
[12] = test system: HCC 2998
[13] = test system: SN12C
[14] = test system: TK-10
[15] = test system: K562
[16] = test system: OVCAR-8
[17] = test system: OVCAR-4
[18] = test system: NCI-H522
[19] = test system: HCT-116
[20] = test system: IGROV-1
[21] = test system: DMS-114
[22] = test system: UACC-62
[23] = test system: CAKI-1
[24] = test system: KM12
[25] = test system: SF-539
[26] = test system: A549
[27] = test system: SNB-19
[28] = test system: ACHN
[29] = test system: SK-MEL-2
[30] = test system: M14
[31] = test system: Malme-3M
[32] = test system: UACC-257
[33] = test system: LXFL 529
[34] = test system: NCI-H23
[35] = test system: M19-MEL
[36] = test system: CCRF-CEM
[37] = test system: EKVX
[38] = test system: HCT-15
[39] = test system: HOP-62
[40] = test system: DMS-273
[41] = test system: RPMI-8226
[42] = test system: XF498
[43] = test system: UO-31
[44] = test system: U-251
[45] = test system: SW-620
[46] = test system: SF-295
[47] = test system: MOLT-4
[48] = test system: HL-60
[49] = test system: HT-29
[50] = test system: DLD-1
[51] = test system: 786-0
[52] = test system: SK-MEL-28
[53] = test system: SNB-78
[54] = test system: OVCAR-3
[55] = test system: HOP-92

**Q.** What does the source list for CC(=O)Nc1ccc(S(=O)(=O)N/N=C/CN2C(=O)c3ccccc3C2=O)cc1?
**A.** GI50 [1]: > 100 µM (inactive); GI50 [2]: > 100 µM (inactive); GI50 [3]: > 100 µM (inactive); GI50 [4]: > 100 µM (inactive); GI50 [5]: > 100 µM (inactive); GI50 [6]: 85.1 µM (inactive); GI50 [7]: > 100 µM (inactive); GI50 [8]: > 100 µM (inactive); GI50 [9]: > 100 µM (inactive); GI50 [10]: > 100 µM (inactive); GI50 [11]: > 100 µM (inactive); GI50 [12]: > 100 µM (inactive); GI50 [13]: > 100 µM (inactive); GI50 [14]: > 100 µM (inactive); GI50 [15]: > 100 µM (inactive); GI50 [16]: > 100 µM (inactive); GI50 [17]: > 100 µM (inactive); GI50 [18]: > 100 µM (inactive); GI50 [19]: > 100 µM (inactive); GI50 [20]: > 100 µM (inactive); GI50 [21]: > 100 µM (inactive); GI50 [22]: > 100 µM (inactive); GI50 [23]: > 100 µM (inactive); GI50 [24]: > 100 µM (inactive); GI50 [25]: > 100 µM (inactive); GI50 [26]: > 100 µM (inactive); GI50 [27]: > 100 µM (inactive); GI50 [28]: > 100 µM (inactive); GI50 [29]: > 100 µM (inactive); GI50 [30]: > 100 µM (inactive); GI50 [31]: > 100 µM (inactive); GI50 [32]: > 100 µM (inactive); GI50 [33]: > 100 µM (inactive); GI50 [34]: > 100 µM (inactive); GI50 [35]: > 100 µM (inactive); GI50 [36]: > 100 µM (inactive); GI50 [37]: > 100 µM (inactive); GI50 [38]: > 100 µM; GI50 [39]: > 100 µM (inactive); GI50 [40]: > 100 µM (inactive); GI50 [41]: > 100 µM (inactive); GI50 [42]: > 100 µM (inactive); GI50 [43]: > 100 µM (inactive); GI50 [44]: > 100 µM (inactive); GI50 [45]: > 100 µM (inactive); GI50 [46]: > 100 µM (inactive); GI50 [47]: > 100 µM (inactive); GI50 [48]: > 100 µM (inactive); GI50 [49]: > 100 µM (inactive); GI50 [50]: > 100 µM (inactive); GI50 [51]: > 100 µM (inactive)

**Q.** With Cc1cc2c(=O)c3ccccc3[nH]c2c(C(=O)O)c1C as the molecule, how does the GI50 [1] read?
**A.** Its GI50 is > 100 µM (inactive).

**Q.** What about the GI50 [3] of the same molecule?
**A.** The GI50 was > 100 µM (inactive).

**Q.** What about the GI50 [4] of the same molecule?
**A.** Its GI50 is 31.6 µM (inactive).

**Q.** And the GI50 [6]?
**A.** Its GI50 is 67.1 µM (inactive).

**Q.** What about the GI50 [7] of the same molecule?
**A.** The GI50 was > 100 µM (inactive).

**Q.** What about the GI50 [52] of the same molecule?
**A.** Its GI50 is > 100 µM (inactive).

**Q.** And the GI50 [10]?
**A.** The GI50 was > 100 µM (inactive).

**Q.** What about the GI50 [11] of the same molecule?
**A.** The GI50 was > 100 µM (inactive).

**Q.** What about the GI50 [12] of the same molecule?
**A.** Its GI50 is > 100 µM (inactive).

**Q.** And the GI50 [13]?
**A.** Its GI50 is > 100 µM (inactive).

**Q.** What about the GI50 [15] of the same molecule?
**A.** Its GI50 is > 100 µM (inactive).

**Q.** And the GI50 [16]?
**A.** The GI50 was > 100 µM (inactive).

**Q.** And the GI50 [17]?
**A.** Its GI50 is > 100 µM (inactive).

**Q.** And the GI50 [53]?
**A.** Its GI50 is 36.6 µM (inactive).

**Q.** And the GI50 [19]?
**A.** Its GI50 is 76 µM (inactive).

**Q.** And the GI50 [20]?
**A.** Its GI50 is > 100 µM (inactive).

**Q.** What about the GI50 [21] of the same molecule?
**A.** The GI50 was > 100 µM (inactive).

**Q.** And the GI50 [22]?
**A.** The GI50 was > 100 µM (inactive).

**Q.** What about the GI50 [23] of the same molecule?
**A.** The GI50 was > 100 µM (inactive).

**Q.** What about the GI50 [24] of the same molecule?
**A.** The GI50 was > 100 µM (inactive).

**Q.** What about the GI50 [25] of the same molecule?
**A.** Its GI50 is > 100 µM (inactive).

**Q.** And the GI50 [26]?
**A.** Its GI50 is > 100 µM (inactive).

**Q.** What about the GI50 [27] of the same molecule?
**A.** Its GI50 is > 100 µM (inactive).

**Q.** What about the GI50 [28] of the same molecule?
**A.** Its GI50 is > 100 µM (inactive).

**Q.** And the GI50 [29]?
**A.** Its GI50 is > 100 µM (inactive).

**Q.** And the GI50 [32]?
**A.** The GI50 was > 100 µM (inactive).

**Q.** What about the GI50 [33] of the same molecule?
**A.** Its GI50 is > 100 µM (inactive).

**Q.** And the GI50 [34]?
**A.** Its GI50 is > 100 µM (inactive).

**Q.** What about the GI50 [35] of the same molecule?
**A.** Its GI50 is > 100 µM (inactive).

**Q.** And the GI50 [36]?
**A.** Its GI50 is > 100 µM (inactive).

**Q.** What about the GI50 [37] of the same molecule?
**A.** Its GI50 is 66.5 µM (inactive).

**Q.** And the GI50 [38]?
**A.** Its GI50 is over 100 µM.

**Q.** What about the GI50 [39] of the same molecule?
**A.** The GI50 was > 100 µM (inactive).

**Q.** And the GI50 [40]?
**A.** Its GI50 is > 100 µM (inactive).

**Q.** And the GI50 [41]?
**A.** Its GI50 is > 100 µM (inactive).

**Q.** And the GI50 [42]?
**A.** The GI50 was > 100 µM (inactive).

**Q.** And the GI50 [54]?
**A.** The GI50 was > 100 µM (inactive).

**Q.** And the GI50 [43]?
**A.** The GI50 was 43.9 µM (inactive).

**Q.** And the GI50 [44]?
**A.** The GI50 was > 100 µM (inactive).

**Q.** And the GI50 [45]?
**A.** Its GI50 is > 100 µM (inactive).

**Q.** What about the GI50 [55] of the same molecule?
**A.** The GI50 was < 0.01 µM (active).

**Q.** And the GI50 [46]?
**A.** The GI50 was > 100 µM (inactive).

**Q.** And the GI50 [47]?
**A.** The GI50 was > 100 µM (inactive).

**Q.** What about the GI50 [48] of the same molecule?
**A.** The GI50 was 70.8 µM (inactive).

**Q.** And the GI50 [49]?
**A.** Its GI50 is > 100 µM (inactive).

**Q.** And the GI50 [50]?
**A.** Its GI50 is > 100 µM (inactive).

**Q.** What about the GI50 [51] of the same molecule?
**A.** The GI50 was > 100 µM (inactive).
